From PubChem BioAssay (NCI)
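Cells were grown in 96-well plates and exposed to each compound for 48 hours at five concentrations; endpoints were interpolated linearly between bracketing concentrations, or set to the highest concentration if not reached. GI50 is the concentration that inhibits growth by half. The concentration for full growth arrest is given as TGI.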

Experiments:
Assay in all cases: growth of human tumour cells (NCI), 48 h; in the data active = GI50 below about 0.43 µM; inactive = the rest
SK-MEL-5 melanoma = test system: SK-MEL-5 melanoma
A498 renal = test system: A498 renal
NCI/ADR-RES ovarian = test system: NCI/ADR-RES ovarian
IGROV1 ovarian = test system: IGROV1 ovarian
K-562 leukemia = test system: K-562 leukemia
UACC-62 melanoma = test system: UACC-62 melanoma
HOP-62 NSCLC = test system: HOP-62 NSCLC
MDA-MB-231 breast = test system: MDA-MB-231 breast
T-47D breast = test system: T-47D breast
HCC-2998 colon = test system: HCC-2998 colon
BT-549 breast = test system: BT-549 breast
NCI-H23 lung = test system: NCI-H23 lung
NCI-H522 lung = test system: NCI-H522 lung
EKVX NSCLC = test system: EKVX NSCLC
OVCAR-8 ovarian = test system: OVCAR-8 ovarian
MDA-MB-435 = test system: MDA-MB-435
KM12 colon = test system: KM12 colon
786-0 renal = test system: 786-0 renal
SF-539 CNS = test system: SF-539 CNS
A549 NSCLC = test system: A549 NSCLC
OVCAR-3 ovarian = test system: OVCAR-3 ovarian
SK-OV-3 ovarian = test system: SK-OV-3 ovarian
PC-3 prostate = test system: PC-3 prostate
HT29 colon = test system: HT29 colon
OVCAR-5 ovarian = test system: OVCAR-5 ovarian
CCRF-CEM leukemia = test system: CCRF-CEM leukemia
COLO 205 colon = test system: COLO 205 colon
RXF 393 renal = test system: RXF 393 renal
MOLT-4 leukemia = test system: MOLT-4 leukemia
HCT-116 colon = test system: HCT-116 colon
MCF7 breast = test system: MCF7 breast
TK-10 renal = test system: TK-10 renal
U251 CNS = test system: U251 CNS
SK-MEL-2 melanoma = test system: SK-MEL-2 melanoma
SF-295 CNS = test system: SF-295 CNS
UACC-257 melanoma = test system: UACC-257 melanoma
HS 578T breast = test system: HS 578T breast
OVCAR-4 ovarian = test system: OVCAR-4 ovarian
M14 melanoma = test system: M14 melanoma
LOX IMVI melanoma = test system: LOX IMVI melanoma
NCI-H460 lung = test system: NCI-H460 lung
ACHN renal = test system: ACHN renal
MALME-3M melanoma = test system: MALME-3M melanoma
NCI-H226 lung = test system: NCI-H226 lung
SK-MEL-28 melanoma = test system: SK-MEL-28 melanoma
HOP-92 NSCLC = test system: HOP-92 NSCLC
HCT-15 colon = test system: HCT-15 colon
DU-145 prostate = test system: DU-145 prostate
UO-31 renal = test system: UO-31 renal
SN12C renal = test system: SN12C renal
SNB-19 CNS = test system: SNB-19 CNS
RPMI-8226 leukemia = test system: RPMI-8226 leukemia
CAKI-1 renal = test system: CAKI-1 renal
SF-268 CNS = test system: SF-268 CNS
SW-620 colon = test system: SW-620 colon
HL-60(TB) leukemia = test system: HL-60(TB) leukemia
SNB-75 CNS = test system: SNB-75 CNS

C=C1C(=O)O[C@H]2[C@H]1CC/C(COC(=O)CSCCSCC(=O)OC/C1=C/CC[C@@]3(C)O[C@H]3[C@H]3OC(=O)C(=C)[C@@H]3CC1)=C\CC[C@@]1(C)O[C@@H]21
9.61 µM: TGI (SNB-19 CNS)
3.14 µM: TGI (MDA-MB-231 breast)
4.48 µM: TGI (RPMI-8226 leukemia)
6.64 µM: TGI (SK-MEL-2 melanoma)
4.6 µM: TGI (OVCAR-8 ovarian)
3.37 µM: TGI (DU-145 prostate)
5.6 µM: TGI (IGROV1 ovarian)
2.95 µM: TGI (COLO 205 colon)
3.93 µM: TGI (UACC-257 melanoma)
5.16 µM: TGI (UACC-62 melanoma)
8.21 µM: TGI (A549 NSCLC)
2.68 µM: TGI (HT29 colon)
25.7 µM: TGI (K-562 leukemia)
3.03 µM: TGI (RXF 393 renal)
8.33 µM: TGI (PC-3 prostate)
7.38 µM: TGI (HOP-62 NSCLC)
6.43 µM: TGI (NCI-H460 lung)
16.7 µM: TGI (NCI/ADR-RES ovarian)
2.44 µM: TGI (OVCAR-3 ovarian)
3.89 µM: TGI (MOLT-4 leukemia)
4.58 µM: TGI (OVCAR-5 ovarian)
3.27 µM: TGI (BT-549 breast) | TGI (786-0 renal)
3.29 µM: TGI (TK-10 renal)
2.92 µM: TGI (LOX IMVI melanoma)
2.66 µM: TGI (MCF7 breast)
5.76 µM: TGI (SF-295 CNS)
3.7 µM: TGI (EKVX NSCLC)
3.72 µM: TGI (SK-MEL-5 melanoma)
2.75 µM: TGI (UO-31 renal)
3.45 µM: TGI (SW-620 colon)
3.31 µM: TGI (CAKI-1 renal)
3.82 µM: TGI (HOP-92 NSCLC)
5.34 µM: TGI (SN12C renal)
4.08 µM: TGI (SF-268 CNS)
38.9 µM: TGI (HS 578T breast)
3.01 µM: TGI (HCT-15 colon)
5.22 µM: TGI (MDA-MB-435)
3.23 µM: TGI (ACHN renal)
3.51 µM: TGI (U251 CNS)
3.33 µM: TGI (MALME-3M melanoma)
3.24 µM: TGI (CCRF-CEM leukemia)
4.06 µM: TGI (KM12 colon)
3.52 µM: TGI (HCC-2998 colon)
4.34 µM: TGI (M14 melanoma)
15.3 µM: TGI (SK-OV-3 ovarian)
2.64 µM: TGI (HCT-116 colon)
3.12 µM: TGI (SF-539 CNS)
13.6 µM: TGI (NCI-H226 lung)
2.8 µM: TGI (NCI-H522 lung)
10.7 µM: TGI (A498 renal)
3.5 µM: TGI (T-47D breast)
5.38 µM: TGI (NCI-H23 lung)
3.81 µM: TGI (SK-MEL-28 melanoma)
inactive: GI50 (SK-MEL-5 melanoma) 1.88 µM | GI50 (A498 renal) 2.75 µM | GI50 (NCI/ADR-RES ovarian) 3.61 µM | GI50 (IGROV1 ovarian) 2.35 µM | GI50 (K-562 leukemia) 1.17 µM | GI50 (UACC-62 melanoma) 2.31 µM | GI50 (HOP-62 NSCLC) 2.45 µM | GI50 (MDA-MB-231 breast) 1.58 µM | GI50 (T-47D breast) 1.63 µM | GI50 (HCC-2998 colon) 1.85 µM | GI50 (BT-549 breast) 1.64 µM | GI50 (NCI-H23 lung) 2.25 µM | GI50 (NCI-H522 lung) 1.29 µM | GI50 (EKVX NSCLC) 1.66 µM | GI50 (OVCAR-8 ovarian) 1.97 µM | GI50 (MDA-MB-435) 2.18 µM | GI50 (KM12 colon) 2.08 µM | GI50 (786-0 renal) 1.64 µM | GI50 (SF-539 CNS) 1.55 µM | GI50 (A549 NSCLC) 2.72 µM | GI50 (OVCAR-3 ovarian) 1.15 µM | GI50 (SK-OV-3 ovarian) 4.48 µM | GI50 (PC-3 prostate) 2.5 µM | GI50 (HT29 colon) 1.36 µM | GI50 (OVCAR-5 ovarian) 2.04 µM | GI50 (CCRF-CEM leukemia) 0.468 µM | GI50 (COLO 205 colon) 1.48 µM | GI50 (RXF 393 renal) 1.55 µM | GI50 (MOLT-4 leukemia) 1.16 µM | GI50 (HCT-116 colon) 1.17 µM | GI50 (MCF7 breast) 0.832 µM | GI50 (TK-10 renal) 1.84 µM | GI50 (U251 CNS) 1.66 µM | GI50 (SK-MEL-2 melanoma) 2.76 µM | GI50 (SF-295 CNS) 2.29 µM | GI50 (UACC-257 melanoma) 1.93 µM | GI50 (HS 578T breast) 4.65 µM | GI50 (OVCAR-4 ovarian) 2.38 µM | GI50 (M14 melanoma) 1.99 µM | GI50 (LOX IMVI melanoma) 1.49 µM | GI50 (NCI-H460 lung) 2.28 µM | GI50 (ACHN renal) 1.7 µM | GI50 (MALME-3M melanoma) 1.48 µM | GI50 (NCI-H226 lung) 3.51 µM | GI50 (SK-MEL-28 melanoma) 1.92 µM | GI50 (HOP-92 NSCLC) 1.86 µM | GI50 (HCT-15 colon) 1.55 µM | GI50 (DU-145 prostate) 1.77 µM | GI50 (UO-31 renal) 1.41 µM | GI50 (SN12C renal) 2.19 µM | GI50 (SNB-19 CNS) 2.85 µM | GI50 (RPMI-8226 leukemia) 1.32 µM | GI50 (CAKI-1 renal) 1.79 µM | GI50 (SF-268 CNS) 1.71 µM | GI50 (SW-620 colon) 1.48 µM
6.05 µM: TGI (OVCAR-4 ovarian)

CN(C)CCCNC(=O)c1cc(NC(=O)c2cc(NC(=O)CCc3c[nH]c4ccccc34)cn2C)cn1C
inactive: GI50 (SK-MEL-5 melanoma) > 100 µM | GI50 (A498 renal) > 100 µM | GI50 (HL-60(TB) leukemia) > 100 µM | GI50 (NCI/ADR-RES ovarian) > 100 µM | GI50 (IGROV1 ovarian) > 100 µM | GI50 (K-562 leukemia) > 100 µM | GI50 (UACC-62 melanoma) > 100 µM | GI50 (MDA-MB-231 breast) > 100 µM | GI50 (T-47D breast) > 100 µM | GI50 (BT-549 breast) > 100 µM | GI50 (NCI-H23 lung) > 100 µM | GI50 (NCI-H522 lung) > 100 µM | GI50 (EKVX NSCLC) > 100 µM | GI50 (OVCAR-8 ovarian) > 100 µM | GI50 (MDA-MB-435) > 100 µM | GI50 (KM12 colon) > 100 µM | GI50 (786-0 renal) > 100 µM | GI50 (SF-539 CNS) > 100 µM | GI50 (A549 NSCLC) > 100 µM | GI50 (OVCAR-3 ovarian) > 100 µM | GI50 (SK-OV-3 ovarian) > 100 µM | GI50 (PC-3 prostate) > 100 µM | GI50 (HT29 colon) > 100 µM | GI50 (OVCAR-5 ovarian) > 100 µM | GI50 (CCRF-CEM leukemia) > 100 µM | GI50 (COLO 205 colon) > 100 µM | GI50 (RXF 393 renal) > 100 µM | GI50 (MOLT-4 leukemia) > 100 µM | GI50 (MCF7 breast) > 100 µM | GI50 (TK-10 renal) > 100 µM | GI50 (U251 CNS) > 100 µM | GI50 (SK-MEL-2 melanoma) > 100 µM | GI50 (SF-295 CNS) > 100 µM | GI50 (UACC-257 melanoma) > 100 µM | GI50 (HS 578T breast) > 100 µM | GI50 (OVCAR-4 ovarian) > 100 µM | GI50 (M14 melanoma) > 100 µM | GI50 (LOX IMVI melanoma) > 100 µM | GI50 (NCI-H460 lung) > 100 µM | GI50 (ACHN renal) > 100 µM | GI50 (MALME-3M melanoma) > 100 µM | GI50 (NCI-H226 lung) > 100 µM | GI50 (SK-MEL-28 melanoma) > 100 µM | GI50 (HOP-92 NSCLC) 72.8 µM | GI50 (HCT-15 colon) > 100 µM | GI50 (DU-145 prostate) > 100 µM | GI50 (UO-31 renal) > 100 µM | GI50 (SNB-75 CNS) > 100 µM | GI50 (SN12C renal) > 100 µM | GI50 (SNB-19 CNS) > 100 µM | GI50 (RPMI-8226 leukemia) > 100 µM | GI50 (SF-268 CNS) > 100 µM | GI50 (SW-620 colon) > 100 µM
> 100 µM: TGI (SK-MEL-5 melanoma) | TGI (A498 renal) | TGI (HL-60(TB) leukemia) | TGI (NCI/ADR-RES ovarian) | TGI (IGROV1 ovarian) | TGI (K-562 leukemia) | TGI (UACC-62 melanoma) | TGI (MDA-MB-231 breast) | TGI (T-47D breast) | TGI (BT-549 breast) | TGI (NCI-H23 lung) | TGI (NCI-H522 lung) | TGI (EKVX NSCLC) | TGI (OVCAR-8 ovarian) | TGI (MDA-MB-435) | TGI (KM12 colon) | TGI (786-0 renal) | TGI (SF-539 CNS) | TGI (A549 NSCLC) | TGI (OVCAR-3 ovarian) | TGI (SK-OV-3 ovarian) | TGI (PC-3 prostate) | TGI (HT29 colon) | TGI (OVCAR-5 ovarian) | TGI (CCRF-CEM leukemia) | TGI (COLO 205 colon) | TGI (RXF 393 renal) | TGI (MOLT-4 leukemia) | TGI (MCF7 breast) | TGI (TK-10 renal) | TGI (U251 CNS) | TGI (SK-MEL-2 melanoma) | TGI (SF-295 CNS) | TGI (UACC-257 melanoma) | TGI (HS 578T breast) | TGI (OVCAR-4 ovarian) | TGI (M14 melanoma) | TGI (LOX IMVI melanoma) | TGI (NCI-H460 lung) | TGI (ACHN renal) | TGI (MALME-3M melanoma) | TGI (NCI-H226 lung) | TGI (SK-MEL-28 melanoma) | TGI (HOP-92 NSCLC) | TGI (HCT-15 colon) | TGI (DU-145 prostate) | TGI (UO-31 renal) | TGI (SNB-75 CNS) | TGI (SN12C renal) | TGI (SNB-19 CNS) | TGI (RPMI-8226 leukemia) | TGI (SF-268 CNS) | TGI (SW-620 colon)
